We go through 34 molecules from ChEMBL document CHEMBL3085742, “Experimental confirmation of new drug-target interactions predicted by Drug Profile Matching” (J Med Chem, 2013).

For orientation: inhibition means the drop in the measured response relative to a control, in per cent. One may read the Ki as a measure of affinity in units of concentration, obtained from inhibition or displacement.

For experiment [1], the target named is D(1A) dopamine receptor (Homo sapiens) (UniProt P21728). Description: Antagonist activity at human recombinant dopamine D1 receptor expressed in CHOK1 cells assessed as inhibition of agonist-induced cAMP accumulation at 100 uM preincubated for 10 mins prior to agonist addition measured after 30 mins by HTRF assay relative to SCH23390. The class given is functional, cell-based. The note with it: CHO-K1. In general terms: cAMP levels reflect the balance of adenylyl cyclase and phosphodiesterase activity.
Sequence of D(1A) dopamine receptor (Homo sapiens) (P21728 whole entry): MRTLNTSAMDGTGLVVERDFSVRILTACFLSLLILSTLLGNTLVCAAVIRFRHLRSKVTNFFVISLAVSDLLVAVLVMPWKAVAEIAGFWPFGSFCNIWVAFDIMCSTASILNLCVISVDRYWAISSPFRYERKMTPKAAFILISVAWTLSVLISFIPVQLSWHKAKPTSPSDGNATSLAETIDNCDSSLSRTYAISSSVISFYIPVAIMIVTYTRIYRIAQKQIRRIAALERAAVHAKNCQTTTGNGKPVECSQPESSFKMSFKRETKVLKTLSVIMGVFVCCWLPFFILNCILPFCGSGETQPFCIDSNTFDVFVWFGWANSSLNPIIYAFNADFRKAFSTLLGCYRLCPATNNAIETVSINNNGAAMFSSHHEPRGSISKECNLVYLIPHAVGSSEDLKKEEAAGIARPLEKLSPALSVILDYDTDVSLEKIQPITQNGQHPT

Experiment [2] concerns the target D(2) dopamine receptor (Homo sapiens) (UniProt P14416). Description: Agonist activity at human recombinant dopamine D2 long receptor expressed in CHOK1 cells coexpressing mitochondrial apoaequorin at 100 uM by luminometric analysis relative to quinpirol. The format is cell-based. The note with it: CHO-K1.
Experiment [3] shares this target. Description: Antagonist activity at human recombinant dopamine D2 long receptor expressed in CHOK1 cells coexpressing mitochondrial apoaequorin assessed as inhibition of agonist-induced effect at 50 uM after 15 mins by luminometric analysis relative to haloperidol. The format is cell-based. The note with it: CHO-K1.
In experiment [4] the target is D(1A) dopamine receptor (Homo sapiens) (UniProt P21728). Description: Agonist activity at human recombinant dopamine D1 receptor expressed in CHOK1 cells assessed as stimulation of cAMP accumulation at 100 uM after 30 mins by HTRF assay relative to SKF81297. The note with it: CHO-K1. The class given is functional, cell-based.
Experiment [5] concerns the target T1, Angiotensin-converting enzyme (Homo sapiens, UniProt P12821). Description: Inhibition of ACE (unknown origin) assessed as 3-Hydroxybutyril-glycil-glycil-glycine conversion to 3-hydroxybutyric acid at 128 uM after 60 mins by WST assay relative to control.
In experiment [6] the target is T2, Prostaglandin G/H synthase 1 (Homo sapiens, UniProt P23219). The experiment can be described thus: Inhibition of COX-1 (unknown origin) using arachidonic acid as substrate assessed as formation of prostanoid products at 500 uM preincubated for 10 mins prior to substrate addition measured after 2 mins by Ellman's method relative to control.
T2 sequence (P23219 whole entry): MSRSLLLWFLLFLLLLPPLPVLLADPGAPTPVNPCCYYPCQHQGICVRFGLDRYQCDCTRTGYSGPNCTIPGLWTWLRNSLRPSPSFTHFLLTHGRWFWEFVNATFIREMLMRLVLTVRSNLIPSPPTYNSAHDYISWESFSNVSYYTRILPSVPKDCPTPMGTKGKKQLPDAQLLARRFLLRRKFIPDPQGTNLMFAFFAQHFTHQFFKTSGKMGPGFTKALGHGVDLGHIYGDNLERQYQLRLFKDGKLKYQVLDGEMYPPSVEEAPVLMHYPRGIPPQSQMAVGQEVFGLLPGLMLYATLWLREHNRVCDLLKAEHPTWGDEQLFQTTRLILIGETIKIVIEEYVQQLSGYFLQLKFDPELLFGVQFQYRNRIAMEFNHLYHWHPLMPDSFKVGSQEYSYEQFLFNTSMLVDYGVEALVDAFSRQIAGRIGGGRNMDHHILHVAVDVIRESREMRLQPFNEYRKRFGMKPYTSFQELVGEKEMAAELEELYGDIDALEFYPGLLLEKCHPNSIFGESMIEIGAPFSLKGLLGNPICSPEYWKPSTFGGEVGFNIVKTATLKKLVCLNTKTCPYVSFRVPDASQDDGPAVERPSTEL
Experiment [7] deals with T3, Prostaglandin G/H synthase 2 (Homo sapiens, UniProt P35354).
T3 sequence (P35354 whole entry): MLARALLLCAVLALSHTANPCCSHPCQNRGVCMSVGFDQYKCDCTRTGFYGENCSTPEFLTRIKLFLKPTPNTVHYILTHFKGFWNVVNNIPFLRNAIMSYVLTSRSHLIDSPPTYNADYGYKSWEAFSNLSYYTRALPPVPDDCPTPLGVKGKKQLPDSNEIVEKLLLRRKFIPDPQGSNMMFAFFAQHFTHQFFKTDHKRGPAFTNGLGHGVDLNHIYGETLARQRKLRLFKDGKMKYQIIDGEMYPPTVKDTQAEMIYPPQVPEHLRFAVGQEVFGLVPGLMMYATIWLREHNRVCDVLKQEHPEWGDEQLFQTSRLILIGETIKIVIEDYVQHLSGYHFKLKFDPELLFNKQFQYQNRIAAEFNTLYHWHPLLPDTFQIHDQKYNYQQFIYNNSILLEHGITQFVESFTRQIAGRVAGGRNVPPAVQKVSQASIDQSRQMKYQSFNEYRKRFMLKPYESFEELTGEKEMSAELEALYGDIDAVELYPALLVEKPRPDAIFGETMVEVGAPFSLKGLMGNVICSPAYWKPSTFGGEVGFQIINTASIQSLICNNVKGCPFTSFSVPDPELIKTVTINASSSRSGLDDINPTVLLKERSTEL
The experiment can be described thus: Inhibition of COX-2 (unknown origin) using arachidonic acid as substrate assessed as formation of prostanoid products preincubated for 10 mins prior to substrate addition measured after 2 mins by Ellman's method.

Experiment [8] deals with T1, Angiotensin-converting enzyme. Description: Inhibition of ACE (unknown origin) assessed as 3-Hydroxybutyril-glycil-glycil-glycine conversion to 3-hydroxybutyric acid after 60 mins by WST assay.
The target is the same in experiment [9]. Description: Inhibition of ACE (unknown origin) assessed as 3-Hydroxybutyril-glycil-glycil-glycine conversion to 3-hydroxybutyric acid at 500 uM after 60 mins by WST assay relative to control.
The target of experiment [10] is D(2) dopamine receptor (Homo sapiens) (UniProt P14416). Description: Antagonist activity at human recombinant dopamine D2 long receptor expressed in CHOK1 cells coexpressing mitochondrial apoaequorin assessed as inhibition of agonist-induced effect at 8 uM after 15 mins by luminometric analysis relative to haloperidol. The format is cell-based. The note with it: CHO-K1.
Sequence of D(2) dopamine receptor (Homo sapiens) (P14416 whole entry): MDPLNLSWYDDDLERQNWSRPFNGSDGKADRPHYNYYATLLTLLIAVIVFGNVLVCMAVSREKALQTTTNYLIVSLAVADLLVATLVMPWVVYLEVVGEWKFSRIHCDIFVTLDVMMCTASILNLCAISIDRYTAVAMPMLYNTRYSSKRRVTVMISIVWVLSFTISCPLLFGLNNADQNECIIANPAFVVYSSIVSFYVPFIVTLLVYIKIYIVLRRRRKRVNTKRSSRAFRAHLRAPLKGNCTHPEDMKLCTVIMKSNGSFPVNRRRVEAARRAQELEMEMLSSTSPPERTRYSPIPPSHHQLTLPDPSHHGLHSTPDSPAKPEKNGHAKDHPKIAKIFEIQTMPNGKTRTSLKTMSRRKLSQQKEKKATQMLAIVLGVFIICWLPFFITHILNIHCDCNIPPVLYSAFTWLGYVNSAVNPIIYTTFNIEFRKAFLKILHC

The target is the same in experiment [11]. The experiment can be described thus: Agonist activity at human recombinant dopamine D2 long receptor expressed in CHOK1 cells coexpressing mitochondrial apoaequorin at 8 uM by luminometric analysis relative to quinpirol. The class given is cell-based. The note with it: CHO-K1.
The target in experiment [12] is D(1A) dopamine receptor (Homo sapiens) (UniProt P21728). Description: Agonist activity at human recombinant dopamine D1 receptor expressed in CHOK1 cells assessed as stimulation of cAMP accumulation at 8 uM after 30 mins by HTRF assay relative to SKF81297. The note with it: CHO-K1. The format is functional, cell-based.
Experiment [13] shares this target. Description: Antagonist activity at human recombinant dopamine D1 receptor expressed in CHOK1 cells assessed as inhibition of agonist-induced cAMP accumulation at 8 uM preincubated for 10 mins prior to agonist addition measured after 30 mins by HTRF assay relative to SCH23390. The format is functional, cell-based. As to conditions: CHO-K1.
The target of experiment [14] is T2, Prostaglandin G/H synthase 1. The experiment can be described thus: Inhibition of COX-1 (unknown origin) using arachidonic acid as substrate assessed as formation of prostanoid products preincubated for 10 mins prior to substrate addition measured after 2 mins by Ellman's method. Background: DTNB colorimetry detects thiols as they appear.

T1 sequence (P12821 whole entry): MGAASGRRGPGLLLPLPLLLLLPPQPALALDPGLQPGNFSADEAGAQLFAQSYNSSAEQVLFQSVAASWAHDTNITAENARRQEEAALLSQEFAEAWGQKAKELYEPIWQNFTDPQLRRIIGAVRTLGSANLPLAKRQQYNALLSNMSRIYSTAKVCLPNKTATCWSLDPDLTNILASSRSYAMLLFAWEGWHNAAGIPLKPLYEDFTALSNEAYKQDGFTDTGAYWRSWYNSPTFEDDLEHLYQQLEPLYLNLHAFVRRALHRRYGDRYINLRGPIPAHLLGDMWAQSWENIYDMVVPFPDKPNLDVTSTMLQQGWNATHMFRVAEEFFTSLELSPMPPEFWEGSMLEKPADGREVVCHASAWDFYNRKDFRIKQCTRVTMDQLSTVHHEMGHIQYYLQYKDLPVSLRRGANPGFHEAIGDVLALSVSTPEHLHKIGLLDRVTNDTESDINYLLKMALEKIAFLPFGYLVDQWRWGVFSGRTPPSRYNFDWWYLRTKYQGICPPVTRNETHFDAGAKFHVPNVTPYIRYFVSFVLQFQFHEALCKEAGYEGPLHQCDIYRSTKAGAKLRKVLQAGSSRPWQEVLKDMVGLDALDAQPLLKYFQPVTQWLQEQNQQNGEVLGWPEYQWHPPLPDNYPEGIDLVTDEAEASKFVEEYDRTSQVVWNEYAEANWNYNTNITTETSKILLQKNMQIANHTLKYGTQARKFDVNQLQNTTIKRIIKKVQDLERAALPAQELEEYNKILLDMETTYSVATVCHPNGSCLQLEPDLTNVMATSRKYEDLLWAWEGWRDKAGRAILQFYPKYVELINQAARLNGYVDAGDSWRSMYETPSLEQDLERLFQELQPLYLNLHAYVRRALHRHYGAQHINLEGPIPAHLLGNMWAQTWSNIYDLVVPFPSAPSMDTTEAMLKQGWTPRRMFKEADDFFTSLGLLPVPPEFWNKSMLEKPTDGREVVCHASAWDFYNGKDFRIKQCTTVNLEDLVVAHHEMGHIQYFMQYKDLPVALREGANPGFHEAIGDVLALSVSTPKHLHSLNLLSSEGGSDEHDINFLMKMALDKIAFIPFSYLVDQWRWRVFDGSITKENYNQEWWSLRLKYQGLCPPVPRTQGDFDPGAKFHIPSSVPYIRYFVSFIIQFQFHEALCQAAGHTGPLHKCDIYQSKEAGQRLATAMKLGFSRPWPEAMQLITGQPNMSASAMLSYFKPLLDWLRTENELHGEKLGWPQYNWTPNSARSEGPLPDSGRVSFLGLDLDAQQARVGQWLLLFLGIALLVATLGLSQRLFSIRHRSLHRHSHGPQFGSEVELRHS

With `Nc1nc2[nH]cnc2c(=S)[nH]1`, the results for the inhibition in experiment [1] and in experiment [3] were 2.3% and 21%, respectively. The Activity in experiment [2] was determined as 0.61%; in experiment [4] it was 0.2%.

As for `CCC[C@@]1(CCc2ccccc2)CC(O)=C([C@H](CC)c2cccc(NS(=O)(=O)c3ccc(C(F)(F)F)cn3)c2)C(=O)O1`, the inhibition in experiment [5] came to 31%.

With `CN(C)CCCN1c2ccccc2CCc2ccc(Cl)cc21`, the inhibition worked out at 99% in [1] and 92% in experiment [3]. Besides, the results for the Activity in experiment [2] and in experiment [4] were 13% and -4.5%, respectively.

Regarding `C#C[C@]1(O)CC[C@H]2[C@@H]3CCC4=CCCC[C@@H]4[C@H]3C(=C)C[C@@]21CC`, the values for the inhibition in experiment [1] and in experiment [3] were 79% and 88%, respectively. Moreover, the Activity in experiment [2] worked out at 7.1%; in [4] it was 2.8%.

In the case of `CN(C)CCC=C1c2ccccc2C=Cc2ccccc21`, the figures for the inhibition in [1] and in experiment [3] were 98% and 95%, respectively. In addition, the Activity in [2] was 1%; in experiment [4], -4.7%.

Consider `O=C(O)CCCCC1CCSS1` (stereo not given), for which the inhibition in experiment [6] stood at 95%.

`NC1=NCC2c3ccccc3Cc3ccccc3N12` (stereo not given): the figures for the inhibition in experiment [1] and in experiment [3] were 96% and 5.5%, respectively. The values for the Activity in experiment [2] and in experiment [4] were -0.33% and -1%, respectively.

Consider `O=[N+]([O-])c1ccc(O)c2ncccc12` [NITROXOLINE], for which the inhibition in [6] came to 97%. Besides, the Ki in [7] was 1 µM.

Take `O[C@@H](c1cc(C(F)(F)F)nc2c(C(F)(F)F)cccc12)[C@H]1CCCCN1` (relative stereo): the figures for the inhibition in [1] and in [3] were 82% and 90%, respectively. In addition, the results for the Activity in experiment [2] and in experiment [4] were 45% and 0.6%, respectively.

Turning to `CC1(C)NC(=O)N(c2ccc([N+](=O)[O-])c(C(F)(F)F)c2)C1=O`, in experiment [6], the inhibition was 99%.

`O=C(c1ccc(OCCN2CCCCC2)cc1)c1c(-c2ccc(O)cc2)sc2cc(O)ccc12`: the inhibition in [1] turned out to be 97%; in experiment [3], 88%. Also, the Activity in experiment [2] is 4.7%; in [4], -7.2%.

With `CC(CN1c2ccccc2Sc2ccccc21)N(C)C` (stereo not given), the results for the inhibition in experiment [1] and in experiment [3] were 84% and 95%, respectively. For the same molecule, the Activity in experiment [2] was 3.5%; in experiment [4], -7.4%.

`CCCc1nc2c(C)cc(-c3nc4ccccc4n3C)cc2n1Cc1ccc(-c2ccccc2C(=O)O)cc1`: in experiment [8], the Ki came out at 6 µM and the inhibition entry is “Dose-dependent effect”. The inhibition in experiment [9] was 97%.

Turning to `CN(C)CC/C=C1/c2ccccc2COc2ccc(CC(=O)O)cc21`, the inhibition in experiment [1] stood at 20%; in experiment [3] it was 52%. For the same molecule, the Activity in [2] was -0.14%; in experiment [4] it was -1.7%.

In the case of `CC(C)C(=O)Nc1ccc([N+](=O)[O-])c(C(F)(F)F)c1`, in [6], the inhibition was 100%.

In the case of `CCc1cccc2c3c([nH]c12)C(CC)(CC(=O)O)OCC3` (stereo not given), the inhibition in experiment [1] was -1.4%; in [3], 13%. The Activity in experiment [2] was 0.96%; in [4] it was -1.9%.

For the molecule `Cc1ccc(-c2cc(C(F)(F)F)nn2-c2ccc(S(N)(=O)=O)cc2)cc1`, the inhibition worked out at 96% in experiment [10] and 95% in experiment [13]. For the same molecule, the Activity in experiment [11] is 175%; in [12] it was 1.8%.

Consider `COc1cc2nc(N3CCN(C(=O)C4COc5ccccc5O4)CC3)nc(N)c2cc1OC` (stereo not given), for which the inhibition in [1] was 102%. Further, the Activity in experiment [2] was 2.4%; in experiment [4], -4.7%.

Turning to `Cc1nc(Nc2ncc(C(=O)Nc3c(C)cccc3Cl)s2)cc(N2CCN(CCO)CC2)n1` [DASATINIB], in experiment [8], the Ki was 715 µM and the inhibition result is “Dose-dependent effect”. The inhibition in experiment [9] came out at 46%.

For the molecule `C[C@@H]1O[C@@H]1P(=O)(O)O`, the inhibition was -1.3% in experiment [1] and 29% in experiment [3]. For the same molecule, the results for the Activity in experiment [2] and in experiment [4] were 0.09% and -1.2%, respectively.

Consider `O=C1c2c(O)ccc(O)c2C(=O)c2c(NCCNCCO)ccc(NCCNCCO)c21`, for which the results for the inhibition in experiment [1] and in [3] were 29% and 81%, respectively. The Activity in experiment [2] was -0.4%; in experiment [4], 66%.

For `Cc1c(O)cccc1C(=O)N[C@@H](CSc1ccccc1)[C@H](O)CN1C[C@H]2CCCC[C@H]2C[C@H]1C(=O)NC(C)(C)C`, the inhibition in experiment [9] worked out at 48%.

Regarding `NC(=O)N/N=C/c1ccc([N+](=O)[O-])o1`, the inhibition in [6] was determined as 91%.

Consider `Nc1ccc(/N=N/c2ccccc2)c(N)n1`, for which the inhibition in [6] came to 23%.

For the molecule `Oc1ccc(OCc2ccccc2)cc1`, the inhibition in experiment [6] worked out at 86%.

For `CCn1cc(C(=O)O)c(=O)c2ccc(C)nc21`, the inhibition in experiment [6] is 34%.

As for `CC/C=C\C/C=C\C/C=C\CCCCCCCC(=O)O` [LINOLENIC ACID], the Ki in experiment [14] stood at 4 µM. Also, the inhibition in experiment [6] worked out at 100%.

Turning to `CO[C@@H]1[C@@H](OC(N)=O)[C@@H](O)[C@H](Oc2ccc3c(O)c(NC(=O)c4ccc(O)c(CC=C(C)C)c4)c(=O)oc3c2C)OC1(C)C` [NOVOBIOCIN], in [8], the Ki was found to be 167 µM and the inhibition entry is “Dose-dependent effect”. The inhibition in [9] is 75%.

With `NS(=O)(=O)c1cc(C(=O)O)c(NCc2ccco2)cc1Cl`, the inhibition in experiment [6] is 36%.

With `CC(N)C12CC3CC(CC(C3)C1)C2` (stereo not given), the figures for the inhibition in experiment [1] and in experiment [3] were -0.4% and 41%, respectively. For the same molecule, the Activity in experiment [2] was 3.6%; in experiment [4], -0.8%.

In the case of `C[C@H](CS)C(=O)N1CCC[C@H]1C(=O)O` [CAPTOPRIL], the values for the Ki in experiment [14] and in experiment [7] were 17 µM and 12 µM, respectively. Also, the inhibition in experiment [6] was found to be 48%.

As for `CC[C@H]1OC(=O)[C@H](C)[C@@H](O[C@H]2C[C@@](C)(OC)[C@@H](O)[C@H](C)O2)[C@H](C)[C@@H](O[C@@H]2O[C@H](C)C[C@H](N(C)C)[C@H]2O)[C@](C)(O)C[C@@H](C)CN(C)[C@H](C)[C@@H](O)[C@]1(C)O`, the inhibition in experiment [6] came out at 68%.

With `O=C(O)[C@@H]1CCCN1` [PROLINE], in experiment [8], the Ki came to 86 µM. Further, the inhibition result in [8] was “Dose-dependent effect”; in [9], 93%.

Turning to `O=C1CN(/N=C/c2ccc([N+](=O)[O-])o2)C(=O)N1`, in [6], the inhibition was 66%.
